Values after ≈ are worked out from the molar mass of the structure shown. Peptide text beside a SMILES is read from it.
Assays:
[1] = system: Acinetobacter baumannii KCTC 1017; format: cell-based; details: for MIC: KCTC 1017
Source text: (§1) To compare the antimicrobial activity of the peptides prepared in <Example 1>, the minimum inhibitory concentration (MIC), […] measured. Here, the minimal inhibitory concentration (MIC) refers to the lowest concentration of a substance that prevents visible bacterial growth.
(§2) Specifically, the bacterial strains listed in Table 2 below were obtained and cultured in media suitable for each strain until the mid-log phase. The cultures were then diluted to a concentration of 2×10^4 cells/100 μL and prepared in microtiter plates (Nunc, USA). Subsequently, serial 2-fold dilutions of the peptides prepared in Example 1 were prepared, and 10 μL of each dilution was added to the wells, and the plates were incubated at 37° C. for 18 hours. Absorbance at 600 nm was measured using a microtiter plate reader (Merck ELISA reader, Germany) to determine the MIC values for each bacterial strain. The parent peptide dCATH was used as a control.

[2] = system: Bacillus cereus KCTC 2508; format: cell-based
Source text: as §1, §2

[3] = system: Escherichia coli ATCC 25922; format: cell-based
Source text: as §1, §2

[4] = system: Listeria monocytogenes KCTC 3710; format: cell-based
Source text: as §1, §2

[5] = system: Pseudomonas aeruginosa ATCC 27853; format: cell-based
Source text: as §1, §2

[6] = system: Staphylococcus aureus ATCC 25923; format: cell-based; details: for MIC: ATCC 25923
Source text: as §1, §2

[7] = system: Acinetobacter baumannii_isolate 1 (antibiotic-resistant); format: cell-based, Acinetobacter baumannii; details: isolate 1 (antibiotic-resistant)
Source text: as §1, §2

[8] = system: Acinetobacter baumannii_isolate 10 (antibiotic-resistant); format: cell-based, Acinetobacter baumannii; details: isolate 10 (antibiotic-resistant)
Source text: as §1, §2

[9] = system: Acinetobacter baumannii_isolate 19 (antibiotic-resistant); format: cell-based, Acinetobacter baumannii; details: isolate 19 (antibiotic-resistant)
Source text: as §1, §2

[10] = system: Acinetobacter baumannii_isolate 2 (antibiotic-resistant); format: cell-based, Acinetobacter baumannii; details: isolate 2 (antibiotic-resistant)
Source text: as §1, §2

[11] = system: Acinetobacter baumannii_isolate 25 (antibiotic-resistant); format: cell-based, Acinetobacter baumannii; details: isolate 25 (antibiotic-resistant)
Source text: as §1, §2

[12] = system: Acinetobacter baumannii_isolate 3 (antibiotic-resistant); format: cell-based, Acinetobacter baumannii; details: isolate 3 (antibiotic-resistant)
Source text: as §1, §2

[13] = system: Acinetobacter baumannii_isolate 5 (antibiotic-resistant); format: cell-based, Acinetobacter baumannii; details: isolate 5 (antibiotic-resistant)
Source text: as §1, §2

[14] = system: Acinetobacter baumannii_isolate 7 (antibiotic-resistant); format: cell-based, Acinetobacter baumannii; details: isolate 7 (antibiotic-resistant)
Source text: as §1, §2

[15] = system: Acinetobacter baumannii_isolate 8 (antibiotic-resistant); format: cell-based, Acinetobacter baumannii; details: isolate 8 (antibiotic-resistant)
Source text: as §1, §2

[16] = system: Acinetobacter baumannii_isolate 9 (antibiotic-resistant); format: cell-based, Acinetobacter baumannii; details: isolate 9 (antibiotic-resistant)
Source text: as §1, §2

[17] = system: Acinetobacter baumannii_isolate11 (antibiotic-resistant); format: cell-based, Acinetobacter baumannii; details: isolate11 (antibiotic-resistant)
Source text: as §1, §2

[18] = system: Acinetobacter baumannii_isolate15 (antibiotic-resistant); format: cell-based, Acinetobacter baumannii; details: isolate15 (antibiotic-resistant)
Source text: as §1, §2

[19] = system: Acinetobacter baumannii_isolate16 (antibiotic-resistant); format: cell-based, Acinetobacter baumannii; details: isolate16 (antibiotic-resistant)
Source text: as §1, §2

[20] = system: Acinetobacter baumannii_isolate20 (antibiotic-resistant); format: cell-based, Acinetobacter baumannii; details: isolate20 (antibiotic-resistant)
Source text: as §1, §2

[21] = system: Acinetobacter baumannii_isolate 10; format: cell-based, Acinetobacter baumannii; details: isolate 10, 24 h
Procedure: (§3) Specifically, among the bacterial strains listed in Table 2, those known to form biofilms well (Acinetobacter baumannii KCTC 2508, Acinetobacter baumannii isolate 10, and isolate 14) were cultured in the appropriate media to the mid-log phase and diluted to a cell concentration of 5×10^4 cells/100 µL, followed by inoculation into microplates (SPL). Subsequently, the peptides prepared in <Example 1> were serially 10-fold diluted with 10 mM sodium phosphate buffer (pH 7.2), and 10 μL of each dilution was added to each well. The plates were then incubated at 37° C. for 24 hours. After completely removing the supernatant, the plates were fixed with 100% methanol for 15 minutes, stained with crystal violet staining solution for 1 hour, washed three times, and then the stain was solubilized with 95% ethanol. Absorbance was measured at 595 nm using a microplate reader to determine the MBIC values for each bacterial strain.

[22] = system: Acinetobacter baumannii_isolate 14; format: cell-based, Acinetobacter baumannii; details: isolate 14, 24 h
Procedure: as §3

in vitro = format: cell-based; details: human, HaCaT keratinocyte cells, Cell Viability
Procedure: To evaluate the cytotoxicity of the peptides prepared in <Example 1>, toxicity was measured using a human keratinocyte cell line (HaCaT cell line, Dr. N. E. Fusenig, Heidelberg, Germany).
Specifically, HaCaT cells cultured in DMEM medium containing 10% fetal bovine serum (FBS) were seeded at a density of 2×10^5 cells/well into a microtiter plate and incubated for 24 hours. Then, peptides dCATH, dCATH-A1, dCATH-A2, dCATH-A3, dCATH-A4, dCATH-A5, dCATH-A6, and dCATH-A7 were added to each well at concentrations of 3.13, 6.25, 12.5, 25.0, 50.0, and 100.0 μM/well, followed by incubation for 24 hours in a 5% CO2 incubator. After 24 hours, 100 μL of a reaction solution containing 0.5 mg/mL MTT (Thiazolyl Blue Tetrazolium Bromide) dissolved in phosphate-buffered saline (PBS) was added to each well and reacted for 4 hours. After removing the supernatant, 200 μL of DMSO (dimethyl sulfoxide) was added to dissolve the formed MTT crystals, and absorbance at 570 nm was measured to determine cell viability.

| MIC [1] | MIC [2] | MIC [3] | MIC [4] | MIC [5] | MIC [6] | MIC [7] | MIC [8] | MIC [9] | MIC [10] | MIC [11] | MIC [12] | MIC [13] | MIC [14] | MIC [15] | MIC [16] | MIC [17] | MIC [18] | MIC [19] | MIC [20] | SMILES | other results |
| --- | --- | --- | --- | --- | --- | --- | --- | --- | --- | --- | --- | --- | --- | --- | --- | --- | --- | --- | --- | --- | --- |
| 1 µM (≈ 2.44 µg/mL) | 2 µM (≈ 4.87 µg/mL) | 2 µM (≈ 4.87 µg/mL) | 2 µM (≈ 4.87 µg/mL) | 2 µM (≈ 4.87 µg/mL) | 2 µM (≈ 4.87 µg/mL) | 1 µM (≈ 2.44 µg/mL) | 2 µM (≈ 4.87 µg/mL) | 1 µM (≈ 2.44 µg/mL) | 1 µM (≈ 2.44 µg/mL) | 1 µM (≈ 2.44 µg/mL) | 1 µM (≈ 2.44 µg/mL) | 1 µM (≈ 2.44 µg/mL) | 1 µM (≈ 2.44 µg/mL) | 1 µM (≈ 2.44 µg/mL) | 1 µM (≈ 2.44 µg/mL) | 1 µM (≈ 2.44 µg/mL) | 2 µM (≈ 4.87 µg/mL) | 1 µM (≈ 2.44 µg/mL) | 1 µM (≈ 2.44 µg/mL) | CC[C@H](C)[C@H](NC(=O)[C@H](C)NC(=O)[C@H](CC(C)C)NC(=O)[C@@H]1CCCN1C(=O)[C@@H](NC(=O)[C@H](CC(C)C)NC(=O)[C@H](CCC(N)=O)NC(=O)[C@H](C)NC(=O)[C@H](C)NC(=O)[C@H](CCCNC(=N)N)NC(=O)[C@@H](N)CCCCN)C(C)C)C(=O)N[C@@H](CCCCN)C(=O)N[C@H](C(=O)N[C@@H](Cc1ccc(O)cc1)C(=O)N[C@@H](CCCNC(=N)N)C(=O)N[C@@H](C)C(=O)N[C@@H](Cc1c[nH]c2ccccc12)C(=O)N[C@@H](CCCCN)C(=O)N[C@@H](CCCNC(=N)N)C(=O)N[C@@H](CCCNC(=N)N)C(N)=O)[C@@H](C)CC [dCATH-A3] (H-KRAAQLVPLAIKIYRAWKRR-NH2; N-terminus assumed) | MBIC [21]: 2 µM; MBIC [22]: 1 µM; viability at 24 h, 3.13 µM (in vitro): 92%; viability at 24 h, 6.25 µM (in vitro): 91.9%; viability at 24 h, 12.5 µM (in vitro): 97.9%; viability at 24 h, 25 µM (in vitro): 56.6%; viability at 24 h, 50 µM (in vitro): 5.47%; viability at 24 h, 100 µM (in vitro): 1.59% |
| 2 µM (≈ 4.94 µg/mL) | 2 µM (≈ 4.94 µg/mL) | 2 µM (≈ 4.94 µg/mL) | 2 µM (≈ 4.94 µg/mL) | 2 µM (≈ 4.94 µg/mL) | 2 µM (≈ 4.94 µg/mL) | 2 µM (≈ 4.94 µg/mL) | 4 µM (≈ 9.87 µg/mL) | 2 µM (≈ 4.94 µg/mL) | 2 µM (≈ 4.94 µg/mL) | 2 µM (≈ 4.94 µg/mL) | 2 µM (≈ 4.94 µg/mL) | 2 µM (≈ 4.94 µg/mL) | 2 µM (≈ 4.94 µg/mL) | 2 µM (≈ 4.94 µg/mL) | 2 µM (≈ 4.94 µg/mL) | 2 µM (≈ 4.94 µg/mL) | 2 µM (≈ 4.94 µg/mL) | 2 µM (≈ 4.94 µg/mL) | 2 µM (≈ 4.94 µg/mL) | CC[C@H](C)[C@H](NC(=O)[C@H](C)NC(=O)[C@H](CC(C)C)NC(=O)[C@H](CCCCN)NC(=O)[C@@H](NC(=O)[C@H](CC(C)C)NC(=O)[C@H](CCC(N)=O)NC(=O)[C@H](C)NC(=O)[C@H](C)NC(=O)[C@H](CCCNC(=N)N)NC(=O)[C@@H](N)CCCCN)C(C)C)C(=O)N[C@@H](CCCCN)C(=O)N[C@H](C(=O)N[C@@H](Cc1ccc(O)cc1)C(=O)N[C@@H](CCCNC(=N)N)C(=O)N[C@@H](C)C(=O)N[C@@H](Cc1c[nH]c2ccccc12)C(=O)N[C@@H](CCCCN)C(=O)N[C@@H](CCCNC(=N)N)C(=O)N[C@@H](CCCNC(=N)N)C(N)=O)[C@@H](C)CC [dCATH-A4] (H-KRAAQLVKLAIKIYRAWKRR-NH2; N-terminus assumed) | MBIC [21]: 4 µM; MBIC [22]: 4 µM; viability at 24 h, 3.13 µM (in vitro): 90.9%; viability at 24 h, 6.25 µM (in vitro): 90.2%; viability at 24 h, 12.5 µM (in vitro): 58%; viability at 24 h, 25 µM (in vitro): 5.59%; viability at 24 h, 50 µM (in vitro): 2.49%; viability at 24 h, 100 µM (in vitro): 1.36% |
| 1 µM (≈ 2.19 µg/mL) | 1 µM (≈ 2.19 µg/mL) | 4 µM (≈ 8.74 µg/mL) | 4 µM (≈ 8.74 µg/mL) | 8 µM (≈ 17.5 µg/mL) | 0.5 µM (≈ 1.09 µg/mL) | 1 µM (≈ 2.19 µg/mL) | 1 µM (≈ 2.19 µg/mL) | 1 µM (≈ 2.19 µg/mL) | 1 µM (≈ 2.19 µg/mL) | 1 µM (≈ 2.19 µg/mL) | 1 µM (≈ 2.19 µg/mL) | 1 µM (≈ 2.19 µg/mL) | 1 µM (≈ 2.19 µg/mL) | 1 µM (≈ 2.19 µg/mL) | 1 µM (≈ 2.19 µg/mL) | 0.5 µM (≈ 1.09 µg/mL) | 1 µM (≈ 2.19 µg/mL) | 1 µM (≈ 2.19 µg/mL) | 1 µM (≈ 2.19 µg/mL) | CC[C@H](C)[C@H](NC(=O)[C@H](C)NC(=O)[C@H](CCCCN)NC(=O)[C@H](CCCCN)NC(=O)[C@@H](NC(=O)[C@H](CC(C)C)NC(=O)[C@H](CCC(N)=O)NC(=O)[C@H](C)NC(=O)[C@H](C)NC(=O)[C@H](CCCNC(=N)N)NC(=O)[C@@H](N)CCCCN)C(C)C)C(=O)N[C@@H](CCCCN)C(=O)N[C@@H](CCCCN)C(=O)N[C@@H](Cc1ccc(O)cc1)C(=O)N[C@@H](CCCNC(=N)N)C(=O)N[C@@H](C)C(=O)N[C@@H](Cc1c[nH]c2ccccc12)C(=O)N[C@@H](CCCCN)C(N)=O [dCATH-A7, KRAAQLVKKAIKKYRAWK] (H-KRAAQLVKKAIKKYRAWK-NH2; N-terminus assumed) | antimicrobial activity compared to the control peptide dCATH ([1]; against Acinetobacter baumannii): significantly superior antimicrobial activity; antimicrobial activity compared to the control peptide dCATH ([6]; against Staphylococcus aureus strains): notably superior activity; MBIC [21]: 2 µM; MBIC [22]: 1 µM; viability at 24 h, 3.13 µM (in vitro): 98%; viability at 24 h, 6.25 µM (in vitro): 99.2%; viability at 24 h, 12.5 µM (in vitro): 100%; viability at 24 h, 25 µM (in vitro): 100%; viability at 24 h, 50 µM (in vitro): 100%; viability at 24 h, 100 µM (in vitro): 98.4% |
